This note sets out measurements from ChEMBL document CHEMBL3286268, “Green synthesis and anti-inflammatory studies of a series of 1,1-bis(heteroaryl)alkane derivatives” (Eur J Med Chem, 2014).

In series [1] the test system is RAW264.7. In words: Antiinflammatory activity in mouse RAW264.7 cells assessed as inhibition of LPS-induced nitrite production at 50 uM after 22 hrs by Griess method relative to LPS-treated control. The class given is functional. Conditions: RAW264.7, 22 h. On the technique in general: Griess reagent forms a coloured azo dye with nitrite.
A short description of series [2]: Cytotoxicity against mouse RAW264.7 cells assessed as cell viability at 50 uM after 22 hrs by MTT assay relative to control. In kind it is cell-based. Conditions: read-out: Activity. In general terms: Formazan colour is commonly taken as a measure of viable cells.
Series [3] concerns RAW264.7. The series is described as follows: Antiinflammatory activity in mouse RAW264.7 cells assessed as inhibition of LPS-induced nitrite production after 22 hrs by Griess method. In kind it is functional, cell-based. Conditions: RAW264.7, 22 h.

By inhibition is commonly meant the percentage by which the read-out fell short of the control. Usually IC50 stands for the concentration at which inhibition is half-maximal.

On to `c1ccc(C(c2ccc[nH]2)c2ccc[nH]2)cc1`, for which the inhibition at 50 µM in the series with RAW264.7 [1] was 2.1%. The viability at 22 h, 50 µM in series [2] amounted to 100%.
The like results for `Cc1ccc(C(c2ccccc2)c2ccc(C)o2)o1` were, in that order, 33.4% and 99.3%.
As to `Cc1ccc(C(c2ccc(F)cc2)c2ccc(C)o2)o1`, in the series on RAW264.7 [1], the inhibition at 50 µM was found to be 64.2%. The viability at 22 h, 50 µM in series [2] was 97.8%. The IC50 with RAW264.7 [3] turned out to be 44.8 µM.
In the same order, the values of `Cc1ccc(C(c2ccc(Cl)cc2)c2ccc(C)o2)o1` are 39.5%, 101% and 50.7 µM.
Take `Cc1ccc(C(c2ccc(Br)cc2)c2ccc(C)o2)o1`: the inhibition at 50 µM in the series with RAW264.7 [1] was 24.9%. Also, in series [2], the viability at 22 h, 50 µM worked out at 101%.
Take `Cc1ccc(C(c2ccc([N+](=O)[O-])cc2)c2ccc(C)o2)o1`: the inhibition at 50 µM in the series with RAW264.7 [1] was found to be 73.2%. The viability at 22 h, 50 µM in series [2] worked out at 96.3%. The IC50 with RAW264.7 [3] was determined as 42.4 µM.
Turning to `COc1ccc(C(c2ccc(C)o2)c2ccc(C)o2)cc1`, the inhibition at 50 µM in the series with RAW264.7 [1] came out at 34.6%. The viability at 22 h, 50 µM in series [2] was determined as 97.8%.
On to `COc1cc(C(c2ccc(C)o2)c2ccc(C)o2)ccc1O`, for which the inhibition at 50 µM with RAW264.7 [1] stood at 63.7%. Further, the viability at 22 h, 50 µM in series [2] came to 98.2%. Further, in the series with RAW264.7 [3], the IC50 was 44 µM.
For `CCC(c1ccc(C)o1)c1ccc(C)o1`, the inhibition at 50 µM with RAW264.7 [1] turned out to be 30.9%. In series [2], the viability at 22 h, 50 µM turned out to be 101%.
On to `CCCCC(c1ccc(C)o1)c1ccc(C)o1`, for which the inhibition at 50 µM in the series with RAW264.7 [1] was found to be 31.7%. For the same compound, in series [2], the viability at 22 h, 50 µM amounted to 100%.
Turning to `Cc1ccc(C(CCc2ccccc2)c2ccc(C)o2)o1`, the inhibition at 50 µM in the series with RAW264.7 [1] amounted to 46.8%. Further, in series [2], the viability at 22 h, 50 µM is 100%. Further, the IC50 in the series on RAW264.7 [3] turned out to be 60.8 µM.
Consider `Cc1ccc(C(CC(C)C)c2ccc(C)o2)o1`, for which the inhibition at 50 µM in the series on RAW264.7 [1] is 21.4%. In addition, in series [2], the viability at 22 h, 50 µM was found to be 101%.
In the same order, the values of `CCC(CC)C(c1ccc(C)o1)c1ccc(C)o1` are 26.6% and 101%.
The like results for `Cc1ccc(C(c2ccc(C)o2)C2CCCCC2)o1` were, in that order, 36.9% and 102%.
With `CCc1ccc(C(c2ccccc2)c2ccc(CC)o2)o1`, in the series on RAW264.7 [1], the inhibition at 50 µM amounted to 41.5%. Also, the viability at 22 h, 50 µM in series [2] is 101%. For the same compound, the IC50 with RAW264.7 [3] is 70.5 µM.
In the same order, the values of `CCc1ccc(C(c2ccc([N+](=O)[O-])cc2)c2ccc(CC)o2)o1` are 63.3%, 101% and 41.1 µM.
As to `O=[N+]([O-])c1ccc(C(c2ccc[nH]2)c2ccc[nH]2)cc1`, in the series with RAW264.7 [1], the inhibition at 50 µM was 26.9%. The viability at 22 h, 50 µM in series [2] stood at 95.8%.
Consider `CCc1ccc(C(c2ccc([N+](=O)[O-])cc2)c2ccc(CC)[nH]2)[nH]1`, for which the inhibition at 50 µM in the series on RAW264.7 [1] worked out at 50.7%. Besides, the viability at 22 h, 50 µM in series [2] was 99.2%. In addition, the half-maximal inhibitory concentration (IC50) in the series on RAW264.7 [3] was 56.9 µM.
Regarding `CCc1ccc(C(CCc2ccccc2)c2ccc(CC)o2)o1`, in the series with RAW264.7 [1], the inhibition at 50 µM stood at 39.4%. In series [2], the viability at 22 h, 50 µM was 101%. Further, the IC50 with RAW264.7 [3] came out at 74.2 µM.
Take `Cc1ccc(C(CCc2ccccc2)c2ccc(C)s2)s1`: in the series with RAW264.7 [1], the inhibition at 50 µM is 21.5%. The viability at 22 h, 50 µM in series [2] came out at 103%.
As to `N=C(N)NN` [PIMAGEDINE], the inhibition at 50 µM with RAW264.7 [1] was 70.2%. The viability at 22 h, 50 µM in series [2] came out at 100%. The IC50 in the series on RAW264.7 [3] was 43.3 µM.
